Measured values from the supplement of paper PMC10307832.

What was measured:
Experiment in all cases: relative viability (nuclei count vs DMSO), 5 days (fraction); higher = more cells survive
VE-821 + AZD7762 = compound: CS(=O)(=O)c1ccc(-c2cnc(N)c(C(=O)Nc3ccccc3)n2)cc1 [VE-821] + NC(=O)Nc1cc(-c2cccc(F)c2)sc1C(=O)N[C@H]1CCCNC1 [AZD7762] (partner 0.2 µM)
Summary of the method: (§1)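 Five library-drug doses in √10 steps were combined with a fixed anchor-drug dose, or a single drug was given alone, by pin tool to lung cancer cell lines in 1536-well plates the day after seeding. Nuclei were stained and counted after 5 days. Relative viability is the nuclei count in treated wells over that in vehicle wells, taken as the median of duplicate plates.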

VE-821 + Lapatinib = compound: CS(=O)(=O)c1ccc(-c2cnc(N)c(C(=O)Nc3ccccc3)n2)cc1 [VE-821] + CS(=O)(=O)CCNCc1ccc(-c2ccc3ncnc(Nc4ccc(OCc5cccc(F)c5)c(Cl)c4)c3c2)o1 [Lapatinib] (partner 2 µM)
Summary of the method: as §1

Ruxolitinib + Pictilisib = compound: N#CC[C@H](C1CCCC1)n1cc(-c2ncnc3[nH]ccc23)cn1 [Ruxolitinib] + CS(=O)(=O)N1CCN(Cc2cc3nc(-c4cccc5[nH]ncc45)nc(N4CCOCC4)c3s2)CC1 [Pictilisib] (partner 1 µM)
Summary of the method: as §1

VE-821 + Luminespib = compound: CS(=O)(=O)c1ccc(-c2cnc(N)c(C(=O)Nc3ccccc3)n2)cc1 [VE-821] + CCNC(=O)c1noc(-c2cc(C(C)C)c(O)cc2O)c1-c1ccc(CN2CCOCC2)cc1 [Luminespib] (partner 0.01 µM)
Summary of the method: as §1

HCC-78
relative viability (VE-821 + AZD7762; first compound 0.08 µM): 0.679
relative viability (VE-821 + AZD7762; first compound 0.253 µM): 0.626
relative viability (VE-821 + AZD7762; first compound 0.8 µM): 0.5
relative viability (VE-821 + AZD7762; first compound 2.53 µM): 0.58
relative viability (VE-821 + AZD7762; first compound 8 µM): 0.392
relative viability (VE-821 + Lapatinib; first compound 0.08 µM): 1.06
relative viability (VE-821 + Lapatinib; first compound 0.253 µM): 0.795
relative viability (VE-821 + Lapatinib; first compound 0.8 µM): 0.371
relative viability (VE-821 + Lapatinib; first compound 2.53 µM): 1.03
relative viability (VE-821 + Lapatinib; first compound 8 µM): 0.255
relative viability (Ruxolitinib + Pictilisib; first compound 0.08 µM): 0.162
relative viability (Ruxolitinib + Pictilisib; first compound 0.253 µM): 0.14
relative viability (Ruxolitinib + Pictilisib; first compound 0.8 µM): 0.207
relative viability (Ruxolitinib + Pictilisib; first compound 2.53 µM): 0.255
relative viability (Ruxolitinib + Pictilisib; first compound 8 µM): 0.216

NCI-H2023
relative viability (VE-821 + Lapatinib; first compound 0.08 µM): 0.918
relative viability (VE-821 + Lapatinib; first compound 0.253 µM): 0.878
relative viability (VE-821 + Lapatinib; first compound 0.8 µM): 0.713
relative viability (VE-821 + Lapatinib; first compound 2.53 µM): 0.477
relative viability (VE-821 + Lapatinib; first compound 8 µM): 0.202
relative viability (Ruxolitinib + Pictilisib; first compound 0.08 µM): 0.251
relative viability (Ruxolitinib + Pictilisib; first compound 0.253 µM): 0.188
relative viability (Ruxolitinib + Pictilisib; first compound 0.8 µM): 0.247
relative viability (Ruxolitinib + Pictilisib; first compound 2.53 µM): 0.215
relative viability (Ruxolitinib + Pictilisib; first compound 8 µM): 0.228
relative viability (VE-821 + Luminespib; first compound 0.08 µM): 0.734
relative viability (VE-821 + Luminespib; first compound 0.253 µM): 0.624
relative viability (VE-821 + Luminespib; first compound 0.8 µM): 0.458
relative viability (VE-821 + Luminespib; first compound 2.53 µM): 0.212
relative viability (VE-821 + Luminespib; first compound 8 µM): 0.125

SK-LU-1
relative viability (VE-821 + Lapatinib; first compound 0.08 µM): 0.907
relative viability (VE-821 + Lapatinib; first compound 0.253 µM): 0.668
relative viability (VE-821 + Lapatinib; first compound 0.8 µM): 0.625
relative viability (VE-821 + Lapatinib; first compound 2.53 µM): 0.582
relative viability (VE-821 + Lapatinib; first compound 8 µM): 0.525
relative viability (Ruxolitinib + Pictilisib; first compound 0.08 µM): 0.657
relative viability (Ruxolitinib + Pictilisib; first compound 0.253 µM): 0.723
relative viability (Ruxolitinib + Pictilisib; first compound 0.8 µM): 0.538
relative viability (Ruxolitinib + Pictilisib; first compound 2.53 µM): 0.607
relative viability (Ruxolitinib + Pictilisib; first compound 8 µM): 0.638
relative viability (VE-821 + Luminespib; first compound 0.08 µM): 0.177
relative viability (VE-821 + Luminespib; first compound 0.253 µM): 0.203
relative viability (VE-821 + Luminespib; first compound 0.8 µM): 0.193
relative viability (VE-821 + Luminespib; first compound 2.53 µM): 0.203
relative viability (VE-821 + Luminespib; first compound 8 µM): 0.164

NCI-H522
relative viability (VE-821 + AZD7762; first compound 0.08 µM): 0.888
relative viability (VE-821 + AZD7762; first compound 0.253 µM): 0.707
relative viability (VE-821 + AZD7762; first compound 0.8 µM): 0.787
relative viability (VE-821 + AZD7762; first compound 2.53 µM): 0.962
relative viability (VE-821 + AZD7762; first compound 8 µM): 0.767
relative viability (VE-821 + Luminespib; first compound 0.08 µM): 1.11
relative viability (VE-821 + Luminespib; first compound 0.253 µM): 1.21
relative viability (VE-821 + Luminespib; first compound 0.8 µM): 0.958
relative viability (VE-821 + Luminespib; first compound 2.53 µM): 0.997
relative viability (VE-821 + Luminespib; first compound 8 µM): 0.897

NCI-H1650
relative viability (VE-821 + Lapatinib; first compound 0.08 µM): 0.845
relative viability (VE-821 + Lapatinib; first compound 0.253 µM): 0.749
relative viability (VE-821 + Lapatinib; first compound 0.8 µM): 0.705
relative viability (VE-821 + Lapatinib; first compound 2.53 µM): 0.757
relative viability (VE-821 + Lapatinib; first compound 8 µM): 0.45
relative viability (Ruxolitinib + Pictilisib; first compound 0.253 µM): 0.608
relative viability (Ruxolitinib + Pictilisib; first compound 0.8 µM): 0.734
relative viability (Ruxolitinib + Pictilisib; first compound 2.53 µM): 0.551
relative viability (Ruxolitinib + Pictilisib; first compound 8 µM): 0.645
relative viability (VE-821 + Luminespib; first compound 0.08 µM): 0.204
relative viability (VE-821 + Luminespib; first compound 0.253 µM): 0.19
relative viability (VE-821 + Luminespib; first compound 0.8 µM): 0.25
relative viability (VE-821 + Luminespib; first compound 2.53 µM): 0.211
relative viability (VE-821 + Luminespib; first compound 8 µM): 0.172

HCC-366
relative viability (VE-821 + AZD7762; first compound 0.08 µM): 0.235
relative viability (VE-821 + AZD7762; first compound 0.253 µM): 0.148
relative viability (VE-821 + AZD7762; first compound 0.8 µM): 0.0505
relative viability (VE-821 + AZD7762; first compound 2.53 µM): 0.056
relative viability (VE-821 + AZD7762; first compound 8 µM): 0.0429
relative viability (VE-821 + Lapatinib; first compound 0.08 µM): 1.1
relative viability (VE-821 + Lapatinib; first compound 0.253 µM): 1.03
relative viability (VE-821 + Lapatinib; first compound 0.8 µM): 0.883
relative viability (VE-821 + Lapatinib; first compound 2.53 µM): 0.406
relative viability (VE-821 + Lapatinib; first compound 8 µM): 0.064
relative viability (Ruxolitinib + Pictilisib; first compound 0.08 µM): 0.154
relative viability (Ruxolitinib + Pictilisib; first compound 0.253 µM): 0.134
relative viability (Ruxolitinib + Pictilisib; first compound 0.8 µM): 0.161
relative viability (Ruxolitinib + Pictilisib; first compound 2.53 µM): 0.094
relative viability (Ruxolitinib + Pictilisib; first compound 8 µM): 0.101

SW 900
relative viability (VE-821 + AZD7762; first compound 0.08 µM): 0.673
relative viability (VE-821 + AZD7762; first compound 0.253 µM): 0.506
relative viability (VE-821 + AZD7762; first compound 0.8 µM): 0.391
relative viability (VE-821 + AZD7762; first compound 2.53 µM): 0.437
relative viability (VE-821 + AZD7762; first compound 8 µM): 0.351
relative viability (VE-821 + Luminespib; first compound 0.08 µM): 0.199
relative viability (VE-821 + Luminespib; first compound 0.253 µM): 0.187
relative viability (VE-821 + Luminespib; first compound 0.8 µM): 0.156
relative viability (VE-821 + Luminespib; first compound 2.53 µM): 0.167
relative viability (VE-821 + Luminespib; first compound 8 µM): 0.152

COR-L 105
relative viability (VE-821 + Lapatinib; first compound 0.08 µM): 0.383
relative viability (VE-821 + Lapatinib; first compound 0.253 µM): 0.354
relative viability (VE-821 + Lapatinib; first compound 0.8 µM): 0.341
relative viability (VE-821 + Lapatinib; first compound 2.53 µM): 0.351
relative viability (VE-821 + Lapatinib; first compound 8 µM): 0.463
relative viability (Ruxolitinib + Pictilisib; first compound 0.08 µM): 0.379
relative viability (Ruxolitinib + Pictilisib; first compound 0.253 µM): 0.389
relative viability (Ruxolitinib + Pictilisib; first compound 0.8 µM): 0.407
relative viability (Ruxolitinib + Pictilisib; first compound 2.53 µM): 0.344
relative viability (Ruxolitinib + Pictilisib; first compound 8 µM): 0.334
relative viability (VE-821 + Luminespib; first compound 0.08 µM): 0.692
relative viability (VE-821 + Luminespib; first compound 0.253 µM): 0.771
relative viability (VE-821 + Luminespib; first compound 0.8 µM): 0.51
relative viability (VE-821 + Luminespib; first compound 2.53 µM): 0.632
relative viability (VE-821 + Luminespib; first compound 8 µM): 0.524

NCI-H441
relative viability (VE-821 + AZD7762; first compound 0.08 µM): 1.28
relative viability (VE-821 + AZD7762; first compound 0.253 µM): 0.966
relative viability (VE-821 + AZD7762; first compound 0.8 µM): 0.93
relative viability (VE-821 + AZD7762; first compound 2.53 µM): 0.69
relative viability (VE-821 + AZD7762; first compound 8 µM): 0.478
relative viability (Ruxolitinib + Pictilisib; first compound 0.08 µM): 0.44
relative viability (Ruxolitinib + Pictilisib; first compound 0.253 µM): 0.497
relative viability (Ruxolitinib + Pictilisib; first compound 0.8 µM): 0.533
relative viability (Ruxolitinib + Pictilisib; first compound 2.53 µM): 0.445
relative viability (Ruxolitinib + Pictilisib; first compound 8 µM): 0.39
relative viability (VE-821 + Luminespib; first compound 0.08 µM): 0.289
relative viability (VE-821 + Luminespib; first compound 0.253 µM): 0.386
relative viability (VE-821 + Luminespib; first compound 0.8 µM): 0.602
relative viability (VE-821 + Luminespib; first compound 2.53 µM): 0.307
relative viability (VE-821 + Luminespib; first compound 8 µM): 0.363
